# Reference: patent US20060154898A1, “Diphosphonate solutions” (priority 2000, published 2006)
# Where a name gives a salt, the structure may show the parent alone.
# Experiment: pH of a diphosphonate solution in distilled water
# Format: physicochemical
# Conditions: solution of one percent in distilled water
# From the text: Solutions of diphosphonates will generally have a pH above that desired. For example, a solution of one percent pamidronate disodium salt in distilled water has a pH of approximately 8.3. The pH is adjusted with a suitable acid or alkali. Suitable acids include any acid such as hydrochloric or phosphoric acid. Phosphoric acid is preferred. Suitable […] include sodium hydroxide.
compound,measurement,value
NCCC(O)(P(=O)(O)O)P(=O)(O)O [pamidronate disodium salt],pH of solution,approximately 8.3
